# Assay results: patent US20090087870A1, “HEMATOLOGICAL ASSAY AND KIT” (DSM IP ASSETS B.V., priority 2002, published 2009)
# Experiments:
# thrombin = thrombin (Homo sapiens, UniProt P00734); details: thrombin substrate, substrate-thrombin reaction; cited from earlier work
# [1] = system: thrombin formation in plasma samples from healthy volunteers and hemophilia A patients; test: onset of thrombin formation in the inventive assay compared with the aPTT (onset of clotting by fibrin formation); format: biochemical; details: 250 μmol/l substrate added to aPTT activation (aluminium silicate, phospholipids, CaCl2); 80 plasma samples; FIG. 11
# From the text: FIG. 11 compares the detection of the onset of coagulation by the Fibrin Formation method and by the inventive method. For this experiment 80 plasma samples from healthy volunteers and hemophilia A patients were clotted by the addition of a contact phase activator (aluminium silicate, Sigma, St. Louis, USA), phospholipids (rabbit brain cephalin, Pentapharm, Basle) and CaCl2 (Sigma, St. Louis, USA). This procedure is called “Activated Partial Thromboplastin time” (aPTT). The time from the start of the procedure till clotting is detected is the aPTT. The inventive assay was performed using the identical activation procedure as the aPTT. The difference between the two procedures was the addition of the fast chromogenic substrate • (H-D-CHG-Ala-Arg-pNa.2AcOH, 250 μmol/l, Pentapharm) and the fibrin polymerisation inhibitor H-Gly-Pro-Arg-Pro-OH AcOH (5 mg/ml, Pentapharm) in the inventive assay.
substance,measurement,setting,value
H-β-Ala-Gly-Arg-pNA°2AcOH,Km,thrombin,2000 µM
H-D-CHG-Ala-Arg-pNa.2AcOH,effect on onset of thrombin formation,[1],delayed the onset of the thrombin formation
same,Km,thrombin,15.9 µM
